Test results taken from article PMC5703498, “Plant-type phytoene desaturase: Functional evaluation of structural implications” (PLoS ONE, 2017).

Columns and labels:
[1] = biological target: T1, Phytoene desaturase (OsPDS-His6) (Oryza sativa, UniProt A2XDA1, R300S); test: liposome-based desaturase assay with purified mutant, DPQ x NFZ matrix, competitive inhibition fit; type: biochemical
T1 construct: gene PDS1

[2] = biological target: T2, Phytoene desaturase (OsPDS-His6) (Oryza sativa, UniProt A2XDA1); test: liposome-based desaturase assay with purified enzyme, competitive inhibition fit against DPQ, HPLC; type: biochemical
T2 construct: gene PDS1
T2 sequence (A2XDA1 88-578): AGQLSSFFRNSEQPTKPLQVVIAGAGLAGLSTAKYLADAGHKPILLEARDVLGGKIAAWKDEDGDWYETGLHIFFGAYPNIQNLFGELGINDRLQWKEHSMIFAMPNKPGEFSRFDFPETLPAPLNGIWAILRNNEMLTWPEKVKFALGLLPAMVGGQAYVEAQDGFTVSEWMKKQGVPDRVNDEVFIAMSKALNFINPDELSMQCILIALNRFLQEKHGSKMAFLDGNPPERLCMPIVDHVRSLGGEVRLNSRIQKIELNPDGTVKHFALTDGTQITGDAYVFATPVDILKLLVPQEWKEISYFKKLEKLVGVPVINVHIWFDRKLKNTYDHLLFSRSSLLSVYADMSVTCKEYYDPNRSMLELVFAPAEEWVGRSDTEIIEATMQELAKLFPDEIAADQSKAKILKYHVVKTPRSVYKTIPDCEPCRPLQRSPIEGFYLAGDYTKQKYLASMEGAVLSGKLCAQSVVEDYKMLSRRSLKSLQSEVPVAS

T1 sequence (A2XDA1 88-578 R300S): as the sequence (A2XDA1 88-578) above, with R213S counted along it

How did the Ki [1] turn out when `CNc1cnn(-c2cccc(C(F)(F)F)c2)c(=O)c1Cl` [NFZ, norflurazon] was run?
The Ki was 1110 ± 360 µM.

What about the Ki [2] of the same compound?
The Ki was 230 ± 30 µM.
